Source: patent publication US6737383B1, “Herbicidal oxadiazolidines” (priority 1999, dated 2004)

How the values were obtained:
giant foxtail = test: Test B pre/postemergence giant foxtail; format: in vivo, Setaria faberii; conditions: for Giant foxtail plant response rating (0 to 10 scale): 0 is no effect
How it was run: (§1)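 Response is a visual 0-to-10 score relative to untreated plants, where 0 means no effect and 10 means complete control, taken twelve to sixteen days after application. Treatments went onto soil at planting and onto foliage of 1- to 4-leaf plants, using a surfactant-containing non-phytotoxic solvent.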

crabgrass = test: Test B pre/postemergence crabgrass; format: in vivo, Digitaria sanguinalis; conditions: for Crabgrass plant response rating (0 to 10 scale): 0 is no effect
How it was run: as §1

wheat = test: Test B pre/postemergence wheat; format: in vivo, Triticum aestivum; conditions: for Wheat plant response rating (0 to 10 scale): 0 is no effect
How it was run: as §1

duck salad = test: Test B flood test duck salad; format: in vivo, Heteranthera limosa
How it was run: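 Read-out is a visual response score from 0 (no effect) to 10 (complete control), assigned by comparison with untreated controls. Treatment was applied at the 2-leaf stage, and plants stayed in the greenhouse for twelve to sixteen days before scoring.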

[1] = Postemergence, Rate 62 g/ha, scale 0 to 10, 0 is no effect, 10 is complete control
[2] = Postemergence, Rate 125 g/ha, scale of 0 to 10 where 0 is no effect and 10 is complete control
[3] = Postemergence, Rate 250 g/ha, scale 0 to 10, 0 no effect, 10 complete control
[4] = Preemergence, Rate 62 g/ha, scale 0 to 10 (0 no effect, 10 complete control)
[5] = Preemergence, Rate 125 g/ha, scale 0 to 10 (0 no effect, 10 complete control)
[6] = Preemergence, Rate 250 g/ha, scale of 0 to 10 where 0 is no effect and 10 is complete control
[7] = Preemergence, Rate 500 g/ha, scale 0 (no effect) to 10 (complete control)
[8] = Rate 500 g/ha, Postemergence, scale 0 to 10, 0 no effect, 10 complete control
[9] = Preemergence, Rate 125 g/ha, 10 is complete control
[10] = Rate 250 g/ha, Postemergence, scale 0 to 10, 0 is no effect, 10 is complete control
[11] = Postemergence (flood test species), Rate 125 g/ha, scale of 0 to 10 where 0 is no effect and 10 is complete control
[12] = Rate 500 g/ha, listed under Postemergence (flood test species), scale 0 to 10, 0 no effect, 10 complete control
[13] = flood test, listed under Postemergence, Rate 250 g/ha, scale 0 to 10, 0 no effect, 10 complete control
[14] = Rate 62 g/ha, Postemergence, scale of 0 to 10 where 0 is no effect and 10 is complete control
[15] = Rate 62 g/ha, Postemergence section, flood test species, scale of 0 to 10 where 0 is no effect and 10 is complete control
[16] = Preemergence, Rate 500 g/ha, scale 0 to 10 (0 no effect, 10 complete control)
[17] = Rate 250 g/ha, Postemergence (flood test), scale 0 to 10, 0 is no effect, 10 is complete control
[18] = Preemergence, Rate 250 g/ha, scale 0 to 10, 0 is no effect, 10 is complete control
[19] = Rate 500 g/ha, Postemergence, scale 0 to 10
[20] = Rate 500 g/ha, listed under Postemergence (flood test species), scale 0 to 10

## Cc1nn(C)c(Cl)c1-n1c(=O)on(C(=O)N(c2ccc(F)cc2)C(C)C)c1=O [Compound 95]
Giant foxtail; [1]
  Giant foxtail plant response rating: 0
Giant foxtail; [2]
  Giant foxtail plant response rating: 0
Giant foxtail; [3]
  Giant foxtail plant response rating: 1
Giant foxtail; [4]
  Giant foxtail plant response rating: 2
Giant foxtail; [5]
  Plant response rating, Giant foxtail: 4
Giant foxtail; [6]
  Plant response rating, Giant foxtail: 7
Giant foxtail; [7]
  Giant foxtail plant response rating: 8
Giant foxtail; [8]
  Giant foxtail plant response rating: 6
crabgrass; [1]
  Crabgrass plant response rating: 0
crabgrass; [2]
  Crabgrass plant response rating: 0
crabgrass; [3]
  Crabgrass plant response rating: 6
crabgrass; [4]
  Crabgrass plant response rating: 2
crabgrass; [5]
  Plant response rating, Crabgrass: 6
crabgrass; [6]
  Plant response rating, Crabgrass: 8
crabgrass; [7]
  Crabgrass plant response rating: 8
crabgrass; [8]
  Crabgrass plant response rating: 8
wheat; [1]
  Wheat plant response rating: 0
wheat; [2]
  Wheat plant response rating: 0
wheat; [4]
  Wheat plant response rating: 0
wheat; [9]
  Wheat plant response rating (0 to 10 scale): 0
wheat; [6]
  Plant response rating, Wheat: 0
wheat; [7]
  Wheat plant response rating: 0
wheat; [10]
  Plant response rating, Wheat: 0
wheat; [8]
  Wheat plant response rating: 0
Duck salad; [11]
  Ducksalad plant response rating: 0
Duck salad; [1]
  Ducksalad plant response rating: 0
Duck salad; [12]
  Ducksalad plant response rating: 0
Duck salad; [13]
  Ducksalad plant response rating: 0

## CCc1noc(C)c1-n1c(=O)on(C(=O)N(c2ccc(F)cc2)C(C)C)c1=O [Compound 101]
Giant foxtail; [2]
  Giant foxtail plant response rating: 0
Giant foxtail; [3]
  Giant foxtail plant response rating: 0
Giant foxtail; [4]
  Giant foxtail plant response rating: 0
Giant foxtail; [5]
  Plant response rating, Giant foxtail: 0
Giant foxtail; [6]
  Plant response rating, Giant foxtail: 0
Giant foxtail; [7]
  Giant foxtail plant response rating: 0
Giant foxtail; [14]
  Giant foxtail plant response rating: 0
Giant foxtail; [8]
  Giant foxtail plant response rating: 0
crabgrass; [2]
  Crabgrass plant response rating: 0
crabgrass; [3]
  Crabgrass plant response rating: 0
crabgrass; [4]
  Crabgrass plant response rating: 0
crabgrass; [5]
  Plant response rating, Crabgrass: 0
crabgrass; [6]
  Plant response rating, Crabgrass: 0
crabgrass; [7]
  Crabgrass plant response rating: 0
crabgrass; [14]
  Crabgrass plant response rating: 0
crabgrass; [8]
  Crabgrass plant response rating: 0
wheat; [2]
  Wheat plant response rating: 0
wheat; [4]
  Wheat plant response rating: 0
wheat; [9]
  Wheat plant response rating (0 to 10 scale): 0
wheat; [6]
  Plant response rating, Wheat: 0
wheat; [7]
  Wheat plant response rating: 0
wheat; [14]
  Wheat plant response rating: 0
wheat; [10]
  Plant response rating, Wheat: 0
wheat; [8]
  Wheat plant response rating: 0
Duck salad; [11]
  Ducksalad plant response rating: 0
Duck salad; [15]
  Ducksalad plant response rating: 0
Duck salad; [12]
  Ducksalad plant response rating: 0
Duck salad; [13]
  Ducksalad plant response rating: 0

## CC(C)N(C(=O)n1oc(=O)n(-c2cnn(C)c2Cl)c1=O)c1ccccc1 [Compound 122]
Giant foxtail; [2]
  Giant foxtail plant response rating: 2
Giant foxtail; [4]
  Giant foxtail plant response rating: 7
Giant foxtail; [9]
  Giant foxtail plant response rating (0 to 10 scale): 9
Giant foxtail; [6]
  Plant response rating, Giant foxtail: 9
Giant foxtail; [16]
  Giant foxtail plant response rating: 9
Giant foxtail; [14]
  Giant foxtail plant response rating: 2
Giant foxtail; [10]
  Plant response rating, Giant foxtail: 6
Giant foxtail; [8]
  Giant foxtail plant response rating: 9
crabgrass; [2]
  Crabgrass plant response rating: 3
crabgrass; [4]
  Crabgrass plant response rating: 4
crabgrass; [9]
  Crabgrass plant response rating (0 to 10 scale): 4
crabgrass; [6]
  Plant response rating, Crabgrass: 8
crabgrass; [16]
  Crabgrass plant response rating: 8
crabgrass; [14]
  Crabgrass plant response rating: 0
crabgrass; [10]
  Plant response rating, Crabgrass: 4
crabgrass; [8]
  Crabgrass plant response rating: 5
wheat; [2]
  Wheat plant response rating: 0
wheat; [4]
  Wheat plant response rating: 0
wheat; [9]
  Wheat plant response rating (0 to 10 scale): 0
wheat; [6]
  Plant response rating, Wheat: 0
wheat; [16]
  Wheat plant response rating: 0
wheat; [14]
  Wheat plant response rating: 0
wheat; [10]
  Plant response rating, Wheat: 0
wheat; [8]
  Wheat plant response rating: 0
Duck salad; [11]
  Ducksalad plant response rating: 0
Duck salad; [15]
  Ducksalad plant response rating: 0
Duck salad; [17]
  Plant response rating, Ducksalad: 0
Duck salad; Rate 250 g/ha, headed Pre-emergence (flood test species), scale 0 to 10 (0 no effect, 10 complete control)
  Ducksalad plant response rating: 0
Duck salad; Rate 500 g/ha, headed Pre-emergence (flood test species), scale 0 to 10 (0 no effect, 10 complete control)
  Plant response rating, Ducksalad: 0
Duck salad; [12]
  Ducksalad plant response rating: 0
Duck salad; Rate 1000 g/ha, Pre-emergence (as headed), scale 0 to 10
  Ducksalad plant response rating: 0
Duck salad; Rate 2000 g/ha, Pre-emergence (as headed), scale 0 to 10
  Ducksalad plant response rating: 0

## CCOC(=O)Cn1c(=O)on(C(=O)N(c2ccc(F)cc2)C(C)C)c1=O [Compound 128]
Giant foxtail; [2]
  Giant foxtail plant response rating: 0
Giant foxtail; [4]
  Giant foxtail plant response rating: 0
Giant foxtail; [9]
  Giant foxtail plant response rating (0 to 10 scale): 0
Giant foxtail; [18]
  Giant foxtail plant response rating: 0
Giant foxtail; [16]
  Giant foxtail plant response rating: 8
Giant foxtail; [14]
  Giant foxtail plant response rating: 0
Giant foxtail; [10]
  Plant response rating, Giant foxtail: 0
Giant foxtail; [19]
  Giant foxtail plant response rating: 0
crabgrass; [2]
  Crabgrass plant response rating: 0
crabgrass; [4]
  Crabgrass plant response rating: 0
crabgrass; [9]
  Crabgrass plant response rating (0 to 10 scale): 0
crabgrass; [18]
  Crabgrass plant response rating: 0
crabgrass; [16]
  Crabgrass plant response rating: 0
crabgrass; [14]
  Crabgrass plant response rating: 0
crabgrass; [10]
  Plant response rating, Crabgrass: 0
crabgrass; [19]
  Crabgrass plant response rating: 0
wheat; [2]
  Wheat plant response rating: 0
wheat; [4]
  Wheat plant response rating: 0
wheat; [9]
  Wheat plant response rating (0 to 10 scale): 0
wheat; [18]
  Wheat plant response rating: 0
wheat; [16]
  Wheat plant response rating: 0
wheat; [14]
  Wheat plant response rating: 0
wheat; [10]
  Plant response rating, Wheat: 0
wheat; [19]
  Wheat plant response rating: 0
Duck salad; [11]
  Ducksalad plant response rating: 0
Duck salad; [17]
  Plant response rating, Ducksalad: 0
Duck salad; [20]
  Ducksalad plant response rating: 0

## Cc1ccccc1Cn1c(=O)on(C(=O)N(c2ccc(Cl)cc2)C(C)C)c1=O [Compound 136]
Giant foxtail; [2]
  Giant foxtail plant response rating: 4
Giant foxtail; [4]
  Giant foxtail plant response rating: 0
Giant foxtail; [9]
  Giant foxtail plant response rating (0 to 10 scale): 4
Giant foxtail; [18]
  Giant foxtail plant response rating: 10
Giant foxtail; [16]
  Giant foxtail plant response rating: 10
Giant foxtail; [14]
  Giant foxtail plant response rating: 0
Giant foxtail; [10]
  Plant response rating, Giant foxtail: 7
Giant foxtail; [19]
  Giant foxtail plant response rating: 7
crabgrass; [2]
  Crabgrass plant response rating: 2
crabgrass; [4]
  Crabgrass plant response rating: 0
crabgrass; [9]
  Crabgrass plant response rating (0 to 10 scale): 4
crabgrass; [18]
  Crabgrass plant response rating: 7
crabgrass; [16]
  Crabgrass plant response rating: 8
crabgrass; [14]
  Crabgrass plant response rating: 1
crabgrass; [10]
  Plant response rating, Crabgrass: 8
crabgrass; [19]
  Crabgrass plant response rating: 9
wheat; [2]
  Wheat plant response rating: 0
wheat; [4]
  Wheat plant response rating: 0
wheat; [9]
  Wheat plant response rating (0 to 10 scale): 0
wheat; [18]
  Wheat plant response rating: 0
wheat; [16]
  Wheat plant response rating: 0
wheat; [14]
  Wheat plant response rating: 0
wheat; [10]
  Plant response rating, Wheat: 0
wheat; [19]
  Wheat plant response rating: 0
Duck salad; [11]
  Ducksalad plant response rating: 0
Duck salad; [15]
  Ducksalad plant response rating: 0
Duck salad; [17]
  Plant response rating, Ducksalad: 0
Duck salad; [20]
  Ducksalad plant response rating: 0
